This is an account of results in US20230021483A1, “[…] […] METHOD AND CLASSIFICATION OF PHARMACEUTICAL COMPONENTS BY USING TRANSCRIPTOMES” (National Institutes of Biomedical Innovation, Health and …, priority 2016, published 2023).

Type in all cases: in vivo, C57BL/6 mice
One series concerns spleen (SP). The series can be described thus: Whole organ transcriptome (GeneChip microarray) of spleen 6 h after adjuvant administration: sDEGs, hierarchical clustering. On adjuvant group (cluster) in SP: key: G1 (interferon signaling); G2 (metabolism of lipids and lipoproteins); G3 (response to stress); G4 (response to wounding); G5 (phosphate-containing compound metabolic process); G6 (phagosome). The settings on record: for adjuvant group (cluster) in SP: hierarchical clustering; for Number of gene probes with statistically significant changes (sDEGs), SP, Down: fold change <0.667, p<0.01, customized PA call=1, 6 h after adjuvant; for Number of gene probes with statistically significant changes (sDEGs), SP, Up: fold change >1.5, p<0.01, customized PA call=1, 6 h after adjuvant.

In a further series the test system is LV, SP and LNs. Kind of series: Whole organ transcriptome across organs (adjuvant gene space): gene responses and adjuvant grouping. The note with it: for adjuvant group (cluster) within the adjuvant gene space: hierarchical clustering, LV, SP and/or LNs; for gene expression changes in LV and SP: Table 15, route not given; for distribution/strength of gene responses between local LNs and systemic organs (LV, SP): 6 h after i.d. (local) administration.

Series [1] relates to inguinal lymph nodes (LN). The series can be described thus: Whole organ transcriptome (GeneChip microarray) of draining inguinal lymph nodes 6 h after adjuvant administration: sDEGs, gene modules, hierarchical clustering. On adjuvant group (cluster) in LN: key: G1 (interferon signaling); G2 (metabolism of lipids and lipoproteins); G3 (response to stress); G4 (response to wounding); G5 (phosphate-containing compound metabolic process); G6 (phagosome). The settings on record: for adjuvant group (cluster) in LN: hierarchical clustering; for adjuvant group (cluster) in LN / Number of gene probes with statistically significant changes (sDEGs), LN, Down / Number of gene probes with statistically significant changes (sDEGs), LN, Up: lymph node; for Number of gene probes with statistically significant changes (sDEGs), LN, Down / Number of gene probes with statistically significant changes (sDEGs), LN, Up: i.d. administration, 6 h after adjuvant; for Number of gene probes with statistically significant changes (sDEGs), LN, Down: fold change <0.667, p<0.01, customized PA call=1; for Number of gene probes with statistically significant changes (sDEGs), LN, Up: fold change >1.5, p<0.01, customized PA call=1.

Another series has as its system circulating blood cells. The series can be described thus: Hematological cell count of peripheral blood 6 h after adjuvant administration (VetScan HMII). The procedure: Take about 200 μL of blood from the retro-orbital venous plexus with a non-heparinized capillary tube and place the blood into a 1.5 mL tube comprising 2 μL of 10% EDTA-2K for hematological testing. Thoroughly mix the sample by gentle tapping. Stored at room temperature until hematological testing.
The hematological cell count was found using VetScan HMII (Abaxis). 50 μl of EDTA-2K blood sample was diluted by adding 250 μl of saline. Measurements are taken with VetScan HMII by following the instruction.
In a preliminary experiment, FCA and ALM were tested at different points up to 72 hours. […] At 6 hours after adjuvant administration, LV, SP, and LN (both sides) were removed to study the gene expression thereof by using Affimetrix Genechip microarray system (Affymetrix). The sampled organs were each placed in a tube containing RNAlater. The tube was maintained at 4° C. overnight, and stored at −80° C. until use. Blood was also collected after 6 hours from adjuvant administration for general hematological testing. About 200 μL of blood was taken from the retro-orbital venous plexus with a non-heparinized capillary tube and placed into a 1.5 mL tube comprising 2 μL of 10% EDTA-2K for hematological testing. The hematological cell count was found using VetScan HMII (Abaxis). 50 μl of EDTA-2K blood sample was diluted by adding 250 μl of saline. Measurements were taken with VetScan HMII by following the instruction.
The effect of adjuvant administration with respect to the changes in several hematological parameters was investigated. The following parameters were studied: white blood cells (WBC), lymphocytes (LYM), monocytes (MON), granulocytes (GRA), relative (%) content of lymphocytes (LY %), relative (%) content of monocytes (MO %), relative (%) content of granulocytes (GR %), red blood cells (RBC), hemoglobins (Hb, HGB), hematocrits (HCT), mean corpuscular volume (MCV), mean corpuscular hemoglobins (MCH), mean corpuscular hemoglobin concentration (MCHC), red blood cell distribution width (RDW), platelets (PLT), platelet concentration (PCT), mean platelet volume (MPV), and platelet distribution width (PDW).

[2] abbreviates: peripheral blood 6 h after administration.

With `Cc1ccc2c(=O)c3cccc(CC(=O)O)c3oc2c1C` [DMXAA, 5,6-dimethylxanthenone-4-acetic acid], in the series with spleen (SP), the “adjuvant group (cluster) in SP” value is on record as “G1”. For the same molecule, in the series with spleen (SP) (i.d. administration), the “Number of gene probes with statistically significant changes (sDEGs), SP, Down” value was found to be 48 and the “Number of gene probes with statistically significant changes (sDEGs), SP, Up” value is 121. In addition, in the series on LV, SP and LNs, the “adjuvant group (cluster) within the adjuvant gene space” value is “group (G) 1”. Moreover, the “module M40^LN (immune system process; dendritic cells, macrophages, neutrophils, stromal cells)” value (“module M40^LN” for short) in series [1] (LN, 6 h) is “strongly induced”. Also, in series [1], the “adjuvant group (cluster) in LN” value is listed as “G1”; the “Number of gene probes with statistically significant changes (sDEGs), LN, Down” value is listed as 261; the “Number of gene probes with statistically significant changes (sDEGs), LN, Up” value came out at 1342.

For the molecule “K3: B class CpG ODN (ATCGACTCTCGAGCGTTCTC), TLR9 ligand (chemistry not given here)”, in the series on spleen (SP) (i.d. administration), the “Number of gene probes with statistically significant changes (sDEGs), SP, Down” value was determined as 18 and the “Number of gene probes with statistically significant changes (sDEGs), SP, Up” value turned out to be 11. For the same molecule, in the series with spleen (SP) (i.p. administration), the “Number of gene probes with statistically significant changes (sDEGs), SP, Down” value is given as 10 and the “Number of gene probes with statistically significant changes (sDEGs), SP, Up” value is 24. In addition, the “gene expression changes in LV and SP” value in the series on LV, SP and LNs (6 h) was “relatively weaker responses”. In addition, in the series with LV, SP and LNs, the “distribution/strength of gene responses between local LNs and systemic organs (LV, SP)” value (from here on “distribution/strength”) was “acted on local LNs but not in the systemic remote organs”; the “adjuvant group (cluster) within the adjuvant gene space” value is “G5”. Further, in series [1] (LN, 6 h), the “genes in module 16 of the LNs (M16^LN), phagosome-related, macrophage-associated” value is reported as “upregulated” and the “module M15^LN (immune system process, T cell associated)” value is on record as “weakly induced”. In series [1], the “adjuvant group (cluster) in LN” value is on record as “G5”; the “Number of gene probes with statistically significant changes (sDEGs), LN, Down” value stood at 18; the “Number of gene probes with statistically significant changes (sDEGs), LN, Up” value is 53.

Consider Monophosphoryl lipid A [MPLA], for which, in the series on spleen (SP) (i.d. administration), the “Number of gene probes with statistically significant changes (sDEGs), SP, Down” value amounted to 22 and the “Number of gene probes with statistically significant changes (sDEGs), SP, Up” value came out at 9. The “monocytosis (monocytes in blood)” value in the series with circulating blood cells (setting [2]) is “clearly induced”. In addition, in the series on LV, SP and LNs (6 h, FIG. 5), the “consistency of gene responses among individual mice and organs” value is “varying gene responses among the individual mice and organs”. The “distribution/strength” value in the series on LV, SP and LNs was “acted on local LNs but not in the systemic remote organs”. For the same molecule, in series [1], the “adjuvant group (cluster) in LN” value is “G1”; the “Number of gene probes with statistically significant changes (sDEGs), LN, Down” value is recorded as 18; the “Number of gene probes with statistically significant changes (sDEGs), LN, Up” value worked out at 8.

For “D35: A class CpG ODN (5′-GGTGCATCGATGCAGGGGGG-3′), TLR9 ligand (DNA GGTGCATCGATGCAGGGGGG; chemistry not given here)”, in the series on spleen (SP) (i.d. administration), the “Number of gene probes with statistically significant changes (sDEGs), SP, Down” value was determined as 19 and the “Number of gene probes with statistically significant changes (sDEGs), SP, Up” value is on record as 23. Also, in the series on LV, SP and LNs, the “distribution/strength” value was “acted on local LNs but not in the systemic remote organs”; the “adjuvant group (cluster) within the adjuvant gene space” value is listed as “G5”. For the same molecule, in series [1], the “adjuvant group (cluster) in LN” value is recorded as “G5”; the “Number of gene probes with statistically significant changes (sDEGs), LN, Down” value is 12; the “Number of gene probes with statistically significant changes (sDEGs), LN, Up” value is on record as 69.

Consider `Nc1nc2c(ncn2[C@@H]2O[C@@H]3COP(=O)(O)O[C@H]4[C@@H](O)[C@H](n5cnc6c(=O)[nH]c(N)nc65)O[C@@H]4COP(=O)(O)O[C@H]3[C@H]2O)c(=O)[nH]1` [cdiGMP, Cyclic diguanylate monophosphate], for which, in the series with spleen (SP), the “adjuvant group (cluster) in SP” value was “G1”. The “monocytosis (monocytes in blood)” value with circulating blood cells (setting [2]) is listed as “clearly induced”. Also, the “adjuvant group (cluster) within the adjuvant gene space” value in the series with LV, SP and LNs was “group (G) 1”. The “module M40^LN” value in series [1] (LN, 6 h) was “strongly induced”. Further, the “adjuvant group (cluster) in LN” value in series [1] was “G1”.

Turning to “heptanoyl-γ-D-glutamyl-(L)-meso-diaminopimelyl-(D)-alanine [FK565]”, in the series with spleen (SP), the “adjuvant group (cluster) in SP” value is given as “G3”. Also, in the series on spleen (SP) (i.d. administration), the “Number of gene probes with statistically significant changes (sDEGs), SP, Down” value was determined as 624 and the “Number of gene probes with statistically significant changes (sDEGs), SP, Up” value was 1672. In the series with circulating blood cells (mouse, in vivo), the “granulocytosis (granulocytes in blood)” value is “caused granulocytosis”, the leukopenia entry is recorded as “caused leukopenia” and the lymphopenia result was “strongly induced”. In addition, in the series on LV, SP and LNs, the “distribution/strength” value was “greater responses in LV and SP than in LNs”; the “adjuvant group (cluster) within the adjuvant gene space” value is “G3”. Further, in series [1], the “adjuvant group (cluster) in LN” value is “G3”; the “Number of gene probes with statistically significant changes (sDEGs), LN, Down” value is reported as 306; the “Number of gene probes with statistically significant changes (sDEGs), LN, Up” value stood at 526.

Regarding `CC(O)COC[C@H]1O[C@@H]2O[C@H]3[C@H](O)[C@@H](O)[C@@H](O[C@H]4[C@H](O)[C@@H](O)[C@@H](O[C@H]5[C@H](O)[C@@H](O)[C@@H](O[C@H]6[C@H](O)[C@@H](O)[C@@H](O[C@H]7[C@H](O)[C@@H](O)[C@@H](O[C@H]8[C@H](O)[C@@H](O)[C@@H](O[C@H]1[C@H](O)[C@H]2O)O[C@@H]8COCC(C)O)O[C@@H]7COCC(C)O)O[C@@H]6COCC(C)O)O[C@@H]5COCC(C)O)O[C@@H]4COCC(C)O)O[C@@H]3COCC(C)O` (stereo partly drawn) [bCD, Hydroxypropyl-beta-cyclodextrin], in the series with spleen (SP), the “adjuvant group (cluster) in SP” value was “G2”. Besides, in the series with spleen (SP) (i.d. administration), the “Number of gene probes with statistically significant changes (sDEGs), SP, Down” value worked out at 59 and the “Number of gene probes with statistically significant changes (sDEGs), SP, Up” value stood at 111. Also, in the series with spleen (SP) (i.p. administration), the “Number of gene probes with statistically significant changes (sDEGs), SP, Down” value came out at 5 and the “Number of gene probes with statistically significant changes (sDEGs), SP, Up” value amounted to 4. Further, in the series with circulating blood cells (setting [2]), the “monocytosis (monocytes in blood)” value is recorded as “clearly induced”. Moreover, the “gene expression changes in LV and SP” value in the series on LV, SP and LNs (6 h) is “relatively weaker responses”. Moreover, the “adjuvant group (cluster) within the adjuvant gene space” value in the series on LV, SP and LNs is on record as “G2”. For the same molecule, in series [1], the “adjuvant group (cluster) in LN” value was “G2”; the “Number of gene probes with statistically significant changes (sDEGs), LN, Down” value is 110; the “Number of gene probes with statistically significant changes (sDEGs), LN, Up” value is reported as 89.

Regarding `CCOCc1nc2c(N)nc3ccccc3c2n1CC(C)(C)O` [R848, 4-amino-2-(ethoxymethyl)-a,a-dimethyl-1H-imidazo[4,5-c]quinoline-1-ethanol], in the series with spleen (SP), the “adjuvant group (cluster) in SP” value was “G1”. For the same molecule, in the series on circulating blood cells (setting [2]), the leukopenia result is “caused leukopenia” and the lymphopenia entry is given as “strongly induced”. Also, the “adjuvant group (cluster) in LN” value in series [1] is reported as “G1”.

As for `Nc1nc2c(ncn2[C@@H]2O[C@@H]3COP(=O)(O)O[C@H]4[C@@H](O)[C@H](n5cnc6c(N)ncnc65)O[C@@H]4COP(=O)(O)O[C@@H]2[C@@H]3O)c(=O)[nH]1` [cGAMP, Cyclic [G(2′,5′)pA(3′,5′)p]], in the series with spleen (SP), the “adjuvant group (cluster) in SP” value was “G1”. In the series on spleen (SP) (i.d. administration), the “Number of gene probes with statistically significant changes (sDEGs), SP, Down” value was determined as 93 and the “Number of gene probes with statistically significant changes (sDEGs), SP, Up” value is given as 680. The “monocytosis (monocytes in blood)” value in the series on circulating blood cells (setting [2]) was “clearly induced”. For the same molecule, the “adjuvant group (cluster) within the adjuvant gene space” value in the series on LV, SP and LNs is “group (G) 1”. The “module M40^LN” value in series [1] (LN, 6 h) is recorded as “strongly induced”. For the same molecule, in series [1], the “adjuvant group (cluster) in LN” value was “G1”; the “Number of gene probes with statistically significant changes (sDEGs), LN, Down” value turned out to be 255; the “Number of gene probes with statistically significant changes (sDEGs), LN, Up” value is recorded as 1135.
